The source of these data is US20240360178A1, “MACROCYCLIC IMMUNOMODULATORS” (Bristol-Myers Squibb Company, priority 2021, published 2024).

For the assay, the target named is T1, human PD-1 (Jurkat-PD-1 cells) / PE-labeled human PD-L1-Ig (Homo sapiens, UniProt Q15116).
T1 construct: expressed in transfected cells; host or cells: Jurkat cell line over-expressing human PD-1
In words: Jurkat-PD-1 Cell Binding High-Content Screening Assay (CBA); Jurkat hPD1-PDL1 assay. The following applies: Jurkat cell line over-expressing human PD-1; PE-labeled PD-L1-Ig 20 nM final; compound incubated 2 hours at 37° C.; read-out: Jurkat HPD1-PDL1 IC50. In outline:
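Jurkat-hPD-1 cells; cpd 2 h, 37° C; then PE-PD-L1-Ig 20 nM final in DMEM/10% FCS; high-content imaging read-out.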

Structures are written as SMILES. Positions of bridges follow the written chain, without caps; N, C: chain ends. Non-standard residues stand in square brackets, D forms with d. Residues, ends and D or L forms follow the SMILES beside them. *: point of attachment. Phe(4-CONH2) = NC(=O)c1ccc(C[C@H](N)C(=O)O)cc1; Phe(4-COOH) = N[C@@H](Cc1ccc(C(=O)O)cc1)C(=O)O; Bip = N[C@@H](Cc1ccc(-c2ccccc2)cc1)C(=O)O; Phe(3-OMe) = COc1cccc(C[C@H](N)C(=O)O)c1; NMeF = CN[C@@H](Cc1ccccc1)C(=O)O; Cit = NC(=O)NCCC[C@H](N)C(=O)O; dDab = NCC[C@@H](N)C(=O)O; Carboxymethyl = O=C(O)C*; NMeA = CN[C@@H](C)C(=O)O; Nle = CCCC[C@H](N)C(=O)O; Dab = NCC[C@H](N)C(=O)O; Nva = CCC[C@H](N)C(=O)O; Sar = CNCC(=O)O

T1 sequence (Q15116 25-288): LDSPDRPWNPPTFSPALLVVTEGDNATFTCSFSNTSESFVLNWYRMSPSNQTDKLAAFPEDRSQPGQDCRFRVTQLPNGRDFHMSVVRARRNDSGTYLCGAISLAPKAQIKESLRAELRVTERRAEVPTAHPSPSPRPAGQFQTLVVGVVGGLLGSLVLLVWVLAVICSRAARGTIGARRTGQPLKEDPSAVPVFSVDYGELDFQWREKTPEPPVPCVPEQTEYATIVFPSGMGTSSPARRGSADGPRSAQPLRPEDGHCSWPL

One may read the IC50 as the concentration at which inhibition is half-maximal. For `CC(C)C[C@@H]1NC(=O)[C@H](CCCNC(=N)N)NC(=O)[C@H](Cc2ccccc2)N(C)C(=O)[C@H](C)N(C)C(=O)[C@H](CCCNC(N)=O)NC(=O)[C@H](Cc2ccc(-c3ccccc3)cc2)NC(=O)[C@H](C(C)C)NC(=O)[C@H](Cc2c[nH]c3ccccc23)NC(=O)[C@H](CC(=O)O)NC(=O)[C@H](Cc2ccc(O)cc2)NC(=O)[C@H](CC(N)=O)NC(=O)CSC[C@@H](C(=O)NCC(N)=O)NC(=O)[C@H](CO)NC(=O)[C@H](C(C)C)NC1=O` [Example 1381] ({CH2CO}-NYDWV[Bip][Cit][NMeA][NMeF]RLVSCG-NH2; thioether N-14), the concentration for half-maximal inhibition (IC50) stood at 160 nM.

For `CC(C)C[C@@H]1NC(=O)[C@H](CCCNC(=N)N)NC(=O)[C@H](Cc2ccccc2)N(C)C(=O)[C@H](C)N(C)C(=O)[C@H](CCCNC(=N)N)NC(=O)[C@H](Cc2ccc(-c3ccccc3)cc2)NC(=O)[C@H](C(C)C)NC(=O)[C@H](Cc2c[nH]c3ccccc23)NC(=O)[C@H](CC(=O)O)NC(=O)[C@H](Cc2ccc(O)cc2)NC(=O)[C@H](Cc2c[nH]c3ccccc23)NC(=O)CSC[C@@H](C(=O)NCC(N)=O)NC(=O)[C@H](CO)NC(=O)[C@H](C(C)C)NC1=O` [Example 1157] ({CH2CO}-WYDWV[Bip]R[NMeA][NMeF]RLVSCG-NH2; thioether N-14), the concentration for half-maximal inhibition (IC50) was 830 nM.

In the case of `COc1cccc(C[C@@H]2NC(=O)[C@H](CC(=O)O)NC(=O)[C@H](Cc3ccc(O)cc3)NC(=O)[C@H](CC(N)=O)NC(=O)CSC[C@@H](C(=O)N[C@@H](C)C(N)=O)NC(=O)[C@H]([C@@H](C)O)NC(=O)[C@H](C(C)C)NC(=O)[C@H](CC(C)C)NC(=O)[C@H](CCN)NC(=O)[C@H](Cc3ccccc3)N(C)C(=O)[C@H](C)N(C)C(=O)[C@H](CCCNC(N)=O)NC(=O)[C@H](Cc3ccc(-c4ccccc4)cc3)NC(=O)[C@H](C(C)C)NC2=O)c1` [Example 1375] ({CH2CO}-NYD[Phe(3-OMe)]V[Bip][Cit][NMeA][NMeF][Dab]LVTCA-NH2; thioether N-14), the IC50 turned out to be 80 nM.

Consider `CC(C)C[C@@H]1NC(=O)[C@H](CCCNC(=N)N)NC(=O)[C@H](Cc2ccccc2)N(C)C(=O)[C@H](C)N(C)C(=O)[C@H](CCCNC(=N)N)NC(=O)[C@H](Cc2ccc(-c3ccccc3)cc2)NC(=O)[C@H](C(C)C)NC(=O)[C@H](Cc2c[nH]c3ccccc23)NC(=O)[C@H](CC(=O)O)NC(=O)[C@H](Cc2ccc(O)cc2)NC(=O)[C@H](Cc2ccccc2)NC(=O)CSC[C@@H](C(=O)N[C@H](C)C(N)=O)NC(=O)[C@H](CO)NC(=O)[C@H](C(C)C)NC1=O` [Example 1331] ({CH2CO}-FYDWV[Bip]R[NMeA][NMeF]RLVSC[dA]-NH2; thioether N-14), for which the 50% inhibitory concentration (IC50) was 80 nM.

For `CC(C)C[C@@H]1NC(=O)[C@H](Cc2c[nH]c3ccccc23)NC(=O)[C@H](CC(=O)O)NC(=O)[C@H](Cc2ccc(C(=O)O)cc2)NC(=O)[C@H](Cc2ccc(OCC(=O)O)cc2)NC(=O)CSC[C@@H](C(=O)N[C@@H](C)C(N)=O)NC(=O)[C@H](CO)NC(=O)[C@H](C(C)C)NC(=O)[C@H](CC(C)C)NC(=O)[C@H](CC(N)=O)NC(=O)[C@H]2CCCN2C(=O)[C@H](C)N(C)C(=O)[C@H](C(C)C)NC(=O)[C@H](Cc2ccc(-c3ccccc3)cc2)NC1=O` [Example 1430] ({CH2CO}-Y(Carboxymethyl)[Phe(4-COOH)]DWL[Bip]V[NMeA][dP]NLVSCA-NH2; thioether N-14), the IC50 was found to be 80 nM.

Consider `CC(C)C[C@@H]1NC(=O)[C@H](Cc2c[nH]c3ccccc23)NC(=O)[C@H](CC(=O)O)NC(=O)[C@H](Cc2ccc(O)cc2)NC(=O)[C@H](C(C)C)NC(=O)CSC[C@@H](C(=O)NCC(N)=O)NC(=O)[C@H](CO)NC(=O)[C@H](C(C)C)NC(=O)[C@H](CC(C)C)NC(=O)[C@H](CC(N)=O)NC(=O)CN(C)C(=O)[C@H](C)N(C)C(=O)[C@H](C(C)C)NC(=O)[C@H](Cc2ccc(-c3ccccc3)cc2)NC1=O` [Example 1154] ({CH2CO}-VYDWL[Bip]V[NMeA][Sar]NLVSCG-NH2; thioether N-14), for which the half-inhibitory concentration (IC50) is 790 nM.

Consider `CC(C)C[C@@H]1NC(=O)[C@H](Cc2c[nH]c3ccccc23)NC(=O)[C@H](CC(=O)O)NC(=O)[C@H](Cc2ccc(O)cc2)NC(=O)[C@H](Cc2ccccc2)NC(=O)CSC[C@@H](C(=O)NCC(N)=O)NC(=O)[C@H](CC(N)=O)NC(=O)[C@H](C(C)C)NC(=O)[C@H](CC(C)C)NC(=O)[C@H](CC(N)=O)NC(=O)CN(C)C(=O)[C@H](C)N(C)C(=O)[C@H](C(C)C)NC(=O)[C@H](Cc2ccc(-c3ccccc3)cc2)NC1=O` [Example 1228] ({CH2CO}-FYDWL[Bip]V[NMeA][Sar]NLVNCG-NH2; thioether N-14), for which the half-maximal inhibitory concentration (IC50) is 720 nM.

As to `CCCC[C@@H]1NC(=O)[C@H](CC(N)=O)NC(=O)[C@H]2CCCN2C(=O)[C@H](C)N(C)C(=O)[C@H](C(C)C)NC(=O)[C@H](Cc2ccc(-c3ccccc3)cc2)NC(=O)[C@H](CC(C)C)NC(=O)[C@H](Cc2c[nH]c3ccccc23)NC(=O)[C@H](CC(=O)O)NC(=O)[C@H](Cc2ccc(O)cc2)NC(=O)[C@H](Cc2ccccc2)NC(=O)CSC[C@@H](C(=O)N[C@@H](C)C(N)=O)NC(=O)[C@H]([C@@H](C)O)NC(=O)[C@H](C(C)C)NC1=O` [Example 1097] ({CH2CO}-FYDWL[Bip]V[NMeA][dP]N[Nle]VTCA-NH2; thioether N-14), the IC50 is 280 nM.

For `CC(C)C[C@@H]1NC(=O)[C@H](Cc2c[nH]c3ccccc23)NC(=O)[C@H](CC(=O)O)NC(=O)[C@H](Cc2ccc(O)cc2)NC(=O)[C@H](Cc2ccccc2)NC(=O)CSC[C@@H](C(=O)N[C@@H](C)C(N)=O)NC(=O)[C@H](CO)NC(=O)[C@H](C(C)C)NC(=O)[C@H](CC(C)C)NC(=O)[C@H](CCC(=O)O)NC(=O)CN(C)C(=O)[C@H](C)N(C)C(=O)[C@H](C(C)C)NC(=O)[C@H](Cc2ccc(-c3ccccc3)cc2)NC1=O` [Example 1108] ({CH2CO}-FYDWL[Bip]V[NMeA][Sar]ELVSCA-NH2; thioether N-14), the half-maximal inhibitory concentration (IC50) stood at 340 nM.

Consider `CC(C)C[C@@H]1NC(=O)[C@H](Cc2c[nH]c3ccccc23)NC(=O)[C@H](CC(=O)O)NC(=O)[C@H](Cc2ccc(O)cc2)NC(=O)[C@H](Cc2ccc(C(N)=O)cc2)NC(=O)CSC[C@@H](C(=O)NCC(N)=O)NC(=O)[C@H](CO)NC(=O)[C@H](C(C)C)NC(=O)[C@H](CC(C)C)NC(=O)[C@H](CC(N)=O)NC(=O)CN(C)C(=O)[C@H](C)N(C)C(=O)[C@H](C(C)C)NC(=O)[C@H](Cc2ccc(-c3ccccc3)cc2)NC1=O` [Example 1174] ({CH2CO}-[Phe(4-CONH2)]YDWL[Bip]V[NMeA][Sar]NLVSCG-NH2; thioether N-14), for which the IC50 came to 970 nM.

`CC(C)C[C@@H]1NC(=O)[C@H](CCCNC(=N)N)NC(=O)[C@H](Cc2ccccc2)N(C)C(=O)[C@H](C)N(C)C(=O)[C@H](CCC(=O)O)NC(=O)[C@H](Cc2ccc(-c3ccccc3)cc2)NC(=O)[C@H](C(C)C)NC(=O)[C@H](Cc2c[nH]c3ccccc23)NC(=O)[C@H](CC(=O)O)NC(=O)[C@H](Cc2ccc(O)cc2)NC(=O)[C@H](CCC(N)=O)NC(=O)CSC[C@@H](C(=O)NCC(N)=O)NC(=O)[C@H](CO)NC(=O)[C@H](C(C)C)NC1=O` [Example 1286] ({CH2CO}-QYDWV[Bip]E[NMeA][NMeF]RLVSCG-NH2; thioether N-14): the IC50 was determined as 750 nM.

`CCC[C@@H]1NC(=O)[C@H](Cc2c[nH]c3ccccc23)NC(=O)[C@H](CC(=O)O)NC(=O)[C@H](Cc2ccc(O)cc2)NC(=O)[C@H](Cc2ccccc2)NC(=O)CSC[C@@H](C(=O)NCC(N)=O)NC(=O)[C@H](CO)NC(=O)[C@H](C(C)C)NC(=O)[C@H](CC(C)C)NC(=O)[C@H](CCCNC(=N)N)NC(=O)[C@H](Cc2ccccc2)N(C)C(=O)[C@H](C)N(C)C(=O)[C@H](CCCNC(=N)N)NC(=O)[C@H](Cc2ccc(-c3ccccc3)cc2)NC1=O` [Example 1335] ({CH2CO}-FYDW[Nva][Bip]R[NMeA][NMeF]RLVSCG-NH2; thioether N-14): the IC50 was determined as 140 nM.

Take `CC(C)C[C@@H]1NC(=O)[C@H](CCCNC(=N)N)NC(=O)[C@H](Cc2ccccc2)N(C)C(=O)[C@H](C)N(C)C(=O)[C@H](CCC(=O)O)NC(=O)[C@H](Cc2ccc(-c3ccccc3)cc2)NC(=O)[C@H](C(C)C)NC(=O)[C@H](Cc2c[nH]c3ccccc23)NC(=O)[C@H](CC(=O)O)NC(=O)[C@H](Cc2ccc(O)cc2)NC(=O)[C@H](CC(N)=O)NC(=O)CSC[C@@H](C(=O)N[C@@H](C)C(N)=O)NC(=O)[C@H](CO)NC(=O)[C@H](C(C)C)NC1=O` [Example 1382] ({CH2CO}-NYDWV[Bip]E[NMeA][NMeF]RLVSCA-NH2; thioether N-14): the IC50 came out at 130 nM.

Consider `CC(C)C[C@@H]1NC(=O)[C@H](Cc2c[nH]c3ccccc23)NC(=O)[C@H](CC(=O)O)NC(=O)[C@H](Cc2ccc(O)cc2)NC(=O)[C@H](Cc2ccccc2)NC(=O)CSC[C@@H](C(=O)N[C@@H](C)C(N)=O)NC(=O)[C@H](CO)NC(=O)[C@H](C(C)C)NC(=O)[C@H](CC(C)C)NC(=O)[C@H](CC(N)=O)NC(=O)[C@H]2CCCN2C(=O)[C@@H](CCN)NC(=O)[C@H](C(C)C)NC(=O)[C@H](Cc2ccc(-c3ccccc3)cc2)NC1=O` [Example 1195] ({CH2CO}-FYDWL[Bip]V[dDab][dP]NLVSCA-NH2; thioether N-14), for which the IC50 was found to be 370 nM.

Take `CC(C)C[C@@H]1NC(=O)[C@H](CCCNC(=N)N)NC(=O)[C@H](Cc2ccccc2)N(C)C(=O)[C@H](C)N(C)C(=O)[C@H](CCCNC(=N)N)NC(=O)[C@H](Cc2ccc(-c3ccccc3)cc2)NC(=O)[C@H](C(C)C)NC(=O)[C@H](Cc2c[nH]c3ccccc23)NC(=O)[C@H](CC(=O)O)NC(=O)[C@H](Cc2ccc(O)cc2)NC(=O)[C@H](Cc2ccc(OCC(=O)O)cc2)NC(=O)CSC[C@@H](C(=O)NCC(N)=O)NC(=O)[C@H](CO)NC(=O)[C@H](C(C)C)NC1=O` [Example 1246] ({CH2CO}-Y(Carboxymethyl)YDWV[Bip]R[NMeA][NMeF]RLVSCG-NH2; thioether N-14): the half-inhibitory concentration (IC50) was 250 nM.
